Measured values published in patent US20100239501A1, “GENE SENSITIVE TO BONE/JOINT DISEASE AND USE THEREOF” (RIKEN, priority 2007, published 2010).

Legend:
[1] = system: OA patient-derived fibroblast-like synovial cells (HFLS-OA); test: Inflammatory cytokine and MMP gene expression induction by LPA in human OA synovial cells; assay type: cell-based
Procedure: The inflammatory cytokine expression induction reaction of LPA, which is a ligand of EDG2, in OA patient-derived fibroblast-like synovial cells was analyzed. The method used is described below. OA patient-derived fibroblast-like synovial cells (HFLS-OA) were purchased from Cell application Co. The HFLS-OA was cultured using the attached Synoviocyte growth medium. The number of passages for the cells used was 4 or 5. The HFLS-OA was seeded to a 24-well plate at a ratio of 1×10^5 cells/well, and cultured using the attached Synoviocyte growth medium until they became confluent. Twelve hours before performing LPA stimulation, the medium was replaced with Ham's F-12 (Invitrogen) medium containing 0.1% fatty acid free bovine serum albumin (Sigma). In the time-related change analysis, 12 hours after the medium replacement, the cells were stimulated with 10 μM LPA; 0, 1, 2, 4, 8, 12 and 24 hours later, total RNA was extracted using ISOGEN (Nippon Gene), and the amounts expressed of the TNFA, IL1B, and IL6 genes, which are inflammatory cytokine genes, and of the MMP1, MMP3, and MMP13 genes, which are Matrix metalloproteinase (MMP) genes, were quantified by a method in accordance with Example 10 (n=4). In the dose dependency test, 12 hours after the medium replacement, the cells were stimulated with 0, 0.1, 0.3, 1, 3 and 10 μM LPA; 2 hours later, total RNA was extracted using ISOGEN (Nippon Gene), and the amounts expressed of the TNFA, IL1B, and IL6 genes, which are inflammatory cytokine genes, were quantified in the same manner as the above for the time-related change test (n=3). As a result of the time-related change test of inflammatory cytokine genes with LPA stimulation, the amounts of TNFA, IL1B and IL6 expressed rose transiently, with peaks reached 2, 4 and 1 hour later, respectively (FIGS. 8a, b and c). The amounts expressed of the MMP1, MMP3, and MMP13 genes, which are MMP genes, rose transiently, with peaks reached 8, 8 and 4 hours later, respectively (FIGS. 8d, e and f). It is known that in synovial cells, MMP genes have the expression thereof increased by inflammatory cytokines. In this experiment, the rise in the expression of the inflammatory cytokine genes preceded the rise in the expression of the MMP genes; therefore, the rise in the expression of MMP genes with LPA stimulation may be a secondary reaction via an inflammatory cytokine. As a result of the dose dependency test, it was shown that LPA raises the expression of inflammatory cytokine genes dose-dependently (FIGS. 8g, h and i). The amounts expressed of the TNFA and IL1B genes nearly reached a plateau at 1 μM, whereas the expression of the IL6 gene rose dose-dependently up to 10 μM. […] From this finding, it is thought that the inflammatory cytokine gene group induction reaction of LPA is very highly likely to be a reaction mediated mainly by the EDG2 gene.

EDG2 = EDG2 (Homo sapiens, UniProt Q92633); test: Intracellular Ca2+ concentration (FLIPR tetra) in McA-RH7777 cells stably expressing EDG2; assay type: cell-based; parameters: Dainippon Pharmaceutical Co., Ltd. (cells); host or cells: McA-RH7777; conditions: 0.03 to 10 μM LPA
Sequence of EDG2 (Q92633 whole entry): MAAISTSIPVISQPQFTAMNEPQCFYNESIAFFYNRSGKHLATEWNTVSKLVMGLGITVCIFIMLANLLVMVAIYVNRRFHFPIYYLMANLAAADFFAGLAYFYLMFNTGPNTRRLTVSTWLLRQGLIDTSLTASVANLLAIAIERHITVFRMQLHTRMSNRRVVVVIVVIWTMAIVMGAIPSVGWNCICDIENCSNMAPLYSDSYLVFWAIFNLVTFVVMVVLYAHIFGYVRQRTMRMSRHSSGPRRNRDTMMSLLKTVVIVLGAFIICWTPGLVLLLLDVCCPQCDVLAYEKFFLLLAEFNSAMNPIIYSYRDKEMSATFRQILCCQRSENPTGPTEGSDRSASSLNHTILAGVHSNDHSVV
Procedure: A forcible expression vector comprising an ORF sequence of human EDG2 [hEDG2-pcDNA3.1(+)] was purchased from UMR cDNA Resource Center. This plasmid was introduced into McA-RH7777 (Dainippon Pharmaceutical Co., Ltd.) using Lipofectamine LTX (Invitrogen), and the cells were cultured in a medium containing Geneticin for 14 to 20 days to acquire cells that stably express EDG2.
Next, an evaluation was made using FLIPR tetra (Molecular Devices) to confirm that stimulation with LPA raised intracellular Ca concentrations via the EDG2 expressed. That is, these cells were seeded to a 384-well plate, 0.03 to 10 μM LPA (Sigma) was added to each well, and it was confirmed that rises in intracellular Ca^2+ concentration occurred. LPA dose-dependently.

**Q.** What does the source list for `CCCCCCCC/C=C\CCCCCCCC(=O)OC[C@@H](O)COP(=O)(O)O` [LPA, 1-Oleoyl-sn-Glycero-3-Phosphate]?
**A.** rise of expression of inflammatory cytokine genes (TNFA, IL1B, IL6) ([1]; 0, 0.1, 0.3, 1, 3 and 10 μM LPA, 2 hours, n=3): dose-dependently; time of peak of IL1B expression ([1]; 10 μM LPA, transient rise, n=4): 4 h; time of peak of IL6 expression ([1]; 10 μM LPA, transient rise, n=4): 1 h; time of peak of MMP1 gene expression ([1]; 10 μM LPA, transient rise, n=4): 8 h; time of peak of MMP3 gene expression ([1]; 10 μM LPA, transient rise, n=4): 8 h; time of peak of MMP13 gene expression ([1]; 10 μM LPA, transient rise, n=4): 4 h; time of peak of TNFA expression ([1]; 10 μM LPA, transient rise, n=4): 2 h; LPA concentration at which IL1B gene expression nearly reached a plateau ([1]; dose dependency test, 2 hours): 1 µM; LPA concentration at which TNFA gene expression nearly reached a plateau ([1]; dose dependency test, 2 hours): 1 µM; LPA concentration up to which IL6 gene expression rose dose-dependently ([1]; dose dependency test, 2 hours): up to 10 μM; rises in intracellular Ca2+ concentration (EDG2): dose-dependently
